Data set [1] in a line: in vivo. To be noted: male, C57BL/6 J, mouse, iv, 1 mg/kg.
Experimental: (§1) The validity of the developed bioanalytical LC-MS/MS method was assessed by quantitative determination of C5aR1 antagonist levels in mice plasma and tissue following i.v. drug administration. All experimental procedures and animal care were performed following approval from the University of Queensland Animal Care and Use Committee and conducted in accordance with the National Health and Medical Research Council of Australia policies and guidelines for the care and use of animals for scientific purposes. C57BL/6 J mice (males, 10–12 weeks old) were purchased from Animal Resources Centre, Western Australia. An i.v. dose of 1 mg/kg was selected based upon previous pharmacokinetic studies in rat and in vivo efficacy studies in mice[6],[28]. After overnight fasting, mice (n = 4 per time point) were anaesthetized with zolazapam (50 mg/kg) and xylazine (12 mg/kg) via i.p. injection. […] Blood samples were collected via cardiac puncture at 2.5 min, 5 min, 10 min, 15 min, 30 min, 45 min, 60 min and 90 minutes in tubes containing EDTA followed by plasma separation by centrifugation at 1500 × g at 4 °C. Plasma samples were stored at −80 °C for further processing and analysis. Mice were immediately perfused transcardially with sterile saline to remove circulating drug from the blood vasculature. Whole brain and spinal cord samples were obtained and homogenized in an equal weight-volume of milliQ water. […] Pharmacokinetics data analysis was performed using Pharsight WINNONLIN software (version 6.4) by a non-compartmental analysis method to obtain various pharmacokinetic parameters.
The nature of data set [2]: Plasma stability, incubation at 37 °C. To be noted: mouse plasma, 1 µg/ml, up to 60 min.
Experimental: (§2) Plasma and serum stability was determined by incubation experiments. For plasma stability, whole blood was collected via cardiac puncture from anaesthetized wild-type mice in tubes containing EDTA, and plasma was extracted by centrifuging blood for 15 min at 1500 × g at 4 °C. […] Samples (n = 4) were quenched at regular intervals of 5 min, 10 min, 15 min, 30 min and 60 min by stopping the reaction with the addition of ice cold acetonitrile, and processed as described earlier for quantitative determination of unchanged analytes. For serum stability, whole blood was collected via cardiac puncture from anaesthetized wild-type mice in tubes and kept on ice until completely clotted. Serum was collected by centrifuging clotted blood for 15 min at 1500 × g at 4 °C. […] Briefly, on the day of analysis, samples were deproteinized with 1:3 ice cold acetonitrile and spiked with 10 µl of 100 ng/ml internal standard. Samples were vortexed, centrifuged and supernatants were dried by vacuum concentration at room temperature. Dried samples were reconstituted in 50 µl of 75% methanol and analysed using LC-MS/MS. The stability the C5aR1 antagonists were expressed as a percentage of the concentration detected at different time points in comparison to the concentration detected immediately following addition of antagonists i.e. at t = 0 min.
A short description of data set [3]: Intestinal environment stability (intestinal washing and intestinal homogenate). Particulars: 1 µg/ml, 37 °C, up to 60 min.
Experimental: Likewise gastric environment stability, intestinal stability of analytes was performed using intestinal contents of wild-type mice with free access to food and water overnight. Mice were anaesthetized and euthanized by cervical dislocation. The small intestine was clamped and removed from the abdominal cavity. The intestine was repeatedly lavaged with sterile saline (5 ml in total) and intestinal washings were collected and combined. The intestine was also homogenized with an equal volume of milliQ water. Intestinal lavage and intestinal homogenates were centrifuged (400 × g, 30 min at 4 °C) and the supernatant was collected and stored on ice. A solution of C5aR1 antagonist (1 µg/ml) was incubated at 37 °C for up to 60 minutes in intestinal lavage and intestinal homogenate supernatants, and samples (n = 4) were collected at regular time intervals by the addition of ice-cold acetonitrile. Samples were processed as described earlier for quantitative determination of unchanged analytes along with internal standard.
Data set [4] in a line: Serum stability, incubation at 37 °C. To be noted: mouse serum, 1 µg/ml, up to 60 min.
Experimental: as §2
Data set [5] can be described thus: Intravenous pharmacokinetics in mice (plasma, brain, spinal cord; LC-MS/MS, non-compartmental analysis). Particulars: for MRT inf: MRT 0-inf_obs.
Experimental: as §1
Data set [6] can be described thus: Gastric environment stability (gastric lavage fluid and gastric homogenate). Particulars: 1 µg/ml, 37 °C, up to 60 min.
Experimental: The gastric stability of analytes was performed using gastric contents of wild-type mice with free access to food and water overnight (i.e. modelling physiological conditions). […] The stomach was clamped and removed from the abdominal cavity, and the stomach cavity was repeatedly lavaged with sterile saline (5 ml in total) and the lavage fluid collected and combined. The stomach tissue was then homogenized with an equal volume of milliQ water. Lavage fluid and stomach homogenate were centrifuged (400 × g, 30 min at 4 °C) and the supernatant was collected and stored on ice. A solution of C5aR1 antagonist (1 µg/ml) were incubated at 37 °C for up to 60 minutes in gastric lavage fluid and gastric homogenate supernatant, and samples (n = 4) were quenched at regular time intervals by the addition of ice-cold acetonitrile. Samples were processed as described earlier for the quantitative determination of unchanged analytes along with an internal standard.
Where [7] appears, read: brain, single i.v. 1 mg/kg, mice.
Setting [8] is: male, C57BL/6 J, mouse, brain, iv, 1 mg/kg, single i.v. 1 mg/kg, mice.
Where [9] appears, read: male, C57BL/6 J, mouse, plasma, iv, 1 mg/kg.
Where [10] appears, read: male, C57BL/6 J, mouse, plasma, iv, 1 mg/kg, single i.v. 1 mg/kg, mice.
[11] abbreviates: male, C57BL/6 J, mouse, spinal cord, iv, 1 mg/kg, single i.v. 1 mg/kg, mice.
Where [12] appears, read: spinal cord, single i.v. 1 mg/kg, mice.

“And” between values parts separate entries of the source, which are not always exact repeats. Identical values can stand only once. Bridge positions count the residues as written; N and C are the ends. Square brackets hold non-standard residues; d marks the D form. Peptide text beside a SMILES is read from it. * marks the point of attachment. Hydrocinnamoyl = O=C(CCc1ccccc1)*; dCha = N[C@H](CC1CCCCC1)C(=O)O; Orn = NCCC[C@H](N)C(=O)O

`CC(=O)N[C@@H](Cc1ccccc1)C(=O)N[C@H]1CCCNC(=O)[C@H](CCCNC(=N)N)NC(=O)[C@H](Cc2c[nH]c3ccccc23)NC(=O)[C@@H](CC2CCCCC2)NC(=O)[C@@H]2CCCN2C1=O` [PMX53, Ac-Phe-[Orn-Pro-dCha-Trp-Arg]]: in data set [1], the AUC(0-inf) was 3.83 µg·h/mL, the AUC(0-t) is 3.41 µg·h/mL and the clearance came to 0.18 mL/min. The peak level in data set [1] (Cmax) (Cmax) was 11.9 µg/mL. Moreover, in data set [1] (Vss_obs), the Vd stood at 0.00328 L. Moreover, in data set [1] (Vz_obs), the volume of distribution (Vd) stood at 0.00826 L.
With `N=C(N)NCCC[C@@H]1NC(=O)[C@H](Cc2c[nH]c3ccccc23)NC(=O)[C@@H](CC2CCCCC2)NC(=O)[C@@H]2CCCN2C(=O)[C@@H](NC(=O)CCc2ccccc2)CCCNC1=O` [PMX205, hydrocinnamate-[Orn-Pro-dCha-Trp-Arg]] (Hydrocinnamoyl-[Orn]P[dCha]WR; lactam 1-C), in data set [2], the “stability in plasma (percentage of concentration detected vs t = 0 min)” value amounted to 91.4 ± 3.1%. For the same molecule, the “stability in intestinal homogenates (unchanged form)” value in data set [3] (mouse intestinal homogenates) is reported as “greater than 35%”. Further, the “stability in intestinal washing (unchanged form)” value in data set [3] (mouse intestinal washing) is recorded as “more than 85%”. Further, the “stability in serum (percentage of concentration detected vs t = 0 min)” value in data set [4] is given as 91.4 ± 1.4%. Besides, the “AUC 0-inf_obs” value in data set [5] (setting [7]) was determined as 12.18 µg·min/g; in data set [5] (setting [12]), 17.42 µg·min/g. The results for the Cl_obs in data set [5] (setting [7]) and in data set [5] (setting [12]) were 2.46 g/min and 1.722 g/min, respectively. Moreover, the Vss_obs in data set [5] (setting [7]) amounted to 553.84 g; in data set [5] (setting [12]) it was 257.98 g. Further, the Vz_obs amounted to 572.84 g in data set [5] (setting [7]) and 265.65 g in data set [5] (setting [12]). Besides, the “AUC(0-t)” value in data set [5] (brain, t = 90 min, single i.v. 1 mg/kg, mice) was 4.18 µg·min/g; in data set [5] (setting [9]) it was 5.8 µg·h/mL; in data set [5] (spinal cord, t = 90 min, single i.v. 1 mg/kg, mice), 7.95 µg·min/g. Moreover, the Cmax in data set [5] (setting [8]) stood at 108 ng/g; in data set [5] (setting [10]), 29 µg/mL; in data set [5] (setting [11]), 213 ng/g. Moreover, the MRT inf in data set [5] (setting [8]) came out at 3.75 h; in data set [5] (setting [10]), 0.15 h; in data set [5] (setting [11]), 2.49 h. Moreover, the half-life in data set [5] (male, C57BL/6 J, mouse, brain, iv, 1 mg/kg, t1/2, brain, single i.v. 1 mg/kg, mice) is 2.69 h; in data set [5] (male, C57BL/6 J, mouse, plasma, iv, 1 mg/kg, t1/2, plasma, single i.v. 1 mg/kg, mice), 0.17 h; in data set [5] (male, C57BL/6 J, mouse, spinal cord, iv, 1 mg/kg, t1/2, spinal cord, single i.v. 1 mg/kg, mice) it was 1.78 h. Also, the AUC(0-inf) in data set [5] (setting [9]) was 5.81 µg·h/mL. The molecule further yielded a clearance in data set [5] (setting [9]) of 0.086 mL/min. For the same molecule, the Vd in data set [5] (male, C57BL/6 J, mouse, plasma, iv, 1 mg/kg, Vss_obs, plasma, single i.v. 1 mg/kg, mice) is 0.00079 L; in data set [5] (male, C57BL/6 J, mouse, plasma, iv, 1 mg/kg, Vz_obs, single i.v. 1 mg/kg, mice), 0.00132 L. Also, the “stability in gastric homogenates (unchanged form, % of t = 0 min)” value in data set [6] (mouse gastric homogenates) came out at 6.7 ± 4.2%. In addition, the “stability in gastric lavage (unchanged form, % of t = 0 min)” value in data set [6] (mouse gastric lavage fluid) was < 25% and 23.3 ± 1.7%.

A word on the AUC(0-inf): it is total exposure, with the tail of the curve extrapolated. Read a low AUC(0-inf) as less exposure. As usually defined, the clearance is the rate of elimination divided by the concentration. Read a high clearance as efficient removal. The Cmax is the highest concentration seen after dosing. In general, Vd refers to the apparent volume that relates the amount in the body to the concentration in plasma or blood. Read a low Vd as confinement near the circulation. Broadly, the MRT inf is a mean duration of stay, worked out from the concentration-time curve. As usually defined, the half-life is how long it takes for the measured level to halve. Low readings indicate fast loss, high ones slow loss.

Values taken from PMC5970165, “Development and validation of a LC-MS/MS assay for pharmacokinetic studies of complement C5a receptor antagonists PMX53 and PMX205 in mice” (Scientific Reports, 2018).
